Key:
karpas 299 cells = assay: Measurement of inhibition of cell proliferation (Karpas), ATPlite; assay type: cell-based; conditions: Homo sapiens, KARPAS-299, 72 h
In short: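 Karpas 299 cells seeded at 300 000 cells/ml, treated on Day 1 and incubated at 37° C under 5% CO2 for 72 h. Viability measured on Day 4 by ATPlite luminescence of ATP from viable cells. IC50 derived by non-linear sigmoid dose-response regression with variable Hill slope.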

ALK kinase = ALK kinase (Homo sapiens, UniProt Q9UM73); assay: Test to measure ALK kinase inhibition (GST-PLCγ1 substrate, anti-phosphotyrosine ELISA, luminescence); assay type: biochemical; conditions: ALK kinase 180 ng/ml, 250 μM ATP, 30 minutes at 30° C.
In short: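 GST-PLCγ1 substrate-coated plate; ALK at 180 ng/ml in Tris pH 7.5 buffer with MgCl2, DTT, β-glycerophosphate, orthovanadate and 250 μM ATP, 30 min at 30 °C, inhibitor typically 30 μM to 10 nM. Phosphotyrosine detected with HRP anti-phosphotyrosine antibody, luminescence read-out.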

Chain of ALK kinase (Q9UM73 19-1620): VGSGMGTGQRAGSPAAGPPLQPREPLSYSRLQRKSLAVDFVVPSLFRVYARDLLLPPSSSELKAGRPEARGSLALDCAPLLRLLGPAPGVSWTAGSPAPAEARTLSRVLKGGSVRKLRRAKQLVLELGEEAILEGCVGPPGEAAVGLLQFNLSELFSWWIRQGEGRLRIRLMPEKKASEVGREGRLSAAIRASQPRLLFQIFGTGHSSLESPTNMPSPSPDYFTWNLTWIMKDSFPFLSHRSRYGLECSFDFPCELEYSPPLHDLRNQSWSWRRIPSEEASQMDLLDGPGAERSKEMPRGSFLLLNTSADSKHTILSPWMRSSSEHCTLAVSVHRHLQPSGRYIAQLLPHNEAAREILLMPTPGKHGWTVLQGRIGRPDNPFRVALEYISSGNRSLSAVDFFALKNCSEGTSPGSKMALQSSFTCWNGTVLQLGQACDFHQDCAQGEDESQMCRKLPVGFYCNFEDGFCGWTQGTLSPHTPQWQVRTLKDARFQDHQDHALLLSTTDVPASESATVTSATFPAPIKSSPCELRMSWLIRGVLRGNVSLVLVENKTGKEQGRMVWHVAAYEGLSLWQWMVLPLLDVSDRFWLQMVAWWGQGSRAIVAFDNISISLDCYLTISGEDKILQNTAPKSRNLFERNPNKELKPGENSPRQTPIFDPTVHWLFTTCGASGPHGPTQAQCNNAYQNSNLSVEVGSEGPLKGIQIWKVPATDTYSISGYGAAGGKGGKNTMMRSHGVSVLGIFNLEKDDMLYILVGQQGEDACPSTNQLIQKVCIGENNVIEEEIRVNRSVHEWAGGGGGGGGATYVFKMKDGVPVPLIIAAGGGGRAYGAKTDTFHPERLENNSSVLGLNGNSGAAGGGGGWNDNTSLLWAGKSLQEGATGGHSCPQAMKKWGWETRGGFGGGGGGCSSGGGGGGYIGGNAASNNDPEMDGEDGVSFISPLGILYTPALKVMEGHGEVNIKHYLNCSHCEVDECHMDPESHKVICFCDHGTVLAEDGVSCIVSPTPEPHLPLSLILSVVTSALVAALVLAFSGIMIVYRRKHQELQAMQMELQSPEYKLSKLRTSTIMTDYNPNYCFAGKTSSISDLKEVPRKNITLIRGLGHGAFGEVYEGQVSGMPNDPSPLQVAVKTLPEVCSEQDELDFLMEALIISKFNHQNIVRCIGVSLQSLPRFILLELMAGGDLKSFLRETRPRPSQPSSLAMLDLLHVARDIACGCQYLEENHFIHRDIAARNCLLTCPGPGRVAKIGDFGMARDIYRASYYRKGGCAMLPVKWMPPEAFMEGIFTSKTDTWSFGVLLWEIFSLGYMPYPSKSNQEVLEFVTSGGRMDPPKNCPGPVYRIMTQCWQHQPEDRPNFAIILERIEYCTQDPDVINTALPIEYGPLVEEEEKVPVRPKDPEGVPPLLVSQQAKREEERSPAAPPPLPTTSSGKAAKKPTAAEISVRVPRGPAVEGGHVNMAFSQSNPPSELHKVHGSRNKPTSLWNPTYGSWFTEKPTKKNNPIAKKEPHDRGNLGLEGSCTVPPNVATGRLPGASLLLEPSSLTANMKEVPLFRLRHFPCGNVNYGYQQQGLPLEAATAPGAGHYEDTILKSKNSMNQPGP

Row | IC50 (karpas 299 cells) [nM] | IC50 (ALK kinase) [nM] | SMILES
1 | > 10000 | 100 to 1000 | Cc1n[nH]c2nc(-c3ccc(O)cc3)c(C#N)c(-c3ccc(-c4ccc(N)cc4)o3)c12 [Compound 273]
2 | 1000 to 10000 | 1000 to 10000 | CN(C)CC#Cc1ccc(-c2c(C#N)c(-c3ccc(O)cc3)nc3[nH]ncc23)o1 [Compound 274]
3 | > 10000 | 100 to 1000 | Cc1n[nH]c2nc(-c3ccc(O)cc3)c(C#N)c(-c3ccc(-c4ccc(S(N)(=O)=O)cc4)o3)c12 [Compound 275]
4 | 1000 to 10000 | > 10000 | N#Cc1c(-c2cscn2)nc2[nH]nc(-c3cccs3)c2c1-c1ccc(N2CCNCC2)cc1 [Compound 276]
5 | > 10000 | 100 to 1000 | Cc1n[nH]c2nc(-c3ccc(O)c(F)c3F)c(C#N)c(-c3ccc(N4CCNCC4)cc3)c12 [Compound 277]
6 | 100 to 1000 | < 100 | Cc1cc(-c2nc3[nH]nc(-c4cccs4)c3c(-c3ccc(N4CCNCC4)cc3)c2C#N)c(F)cc1O [Compound 278]
7 | > 10000 | 1000 to 10000 | N#Cc1c(-c2cnn[nH]2)nc2[nH]nc(-c3cccs3)c2c1-c1ccc(N2CCNCC2)cc1 [Compound 279]
8 | 1000 to 10000 | 1000 to 10000 | N#Cc1c(-c2cncs2)nc2[nH]nc(-c3cccs3)c2c1-c1ccc(N2CCNCC2)cc1 [Compound 280]
9 | 1000 to 10000 | 1000 to 10000 | N#Cc1c(-c2cscn2)nc2[nH]nc(-c3ccc(N4CCOCC4)cc3)c2c1-c1ccc(N2CCNCC2)cc1 [Compound 281]
10 | > 10000 | 1000 to 10000 | N#Cc1c(-c2ccnc(O)c2)nc2[nH]nc(-c3cccs3)c2c1-c1ccc(N2CCNCC2)cc1 [Compound 282]
11 | 1000 to 10000 | 100 to 1000 | Cc1cc(-c2nc3[nH]nc(-c4cccs4)c3c(-c3ccc(N4CCNCC4)cc3)c2C#N)cc(C)c1O [Compound 283]
12 | < 100 | < 100 | COC(=O)c1c(-c2ccc(O)cc2F)nc2[nH]nc(C)c2c1-c1ccc(N2CCNCC2)cc1 [Compound 284]
13 | 1000 to 10000 | < 100 | N#Cc1c(-c2cncs2)nc2[nH]nc(-c3ccco3)c2c1-c1ccc(N2CCNCC2)cc1 [Compound 285]
14 | 100 to 1000 | < 100 | Cc1cc(-c2nc3[nH]nc(C)c3c(-c3ccc(N4CCNCC4)cc3)c2C#N)c(F)cc1O [Compound 286]
15 | 1000 to 10000 | < 100 | N#Cc1c(-c2ccc(O)cc2F)nc2[nH]ncc2c1-c1ccc(-c2ccc(S(N)(=O)=O)cc2)o1 [Compound 287]
16 | > 10000 | 1000 to 10000 | COc1ccc(-c2nc3[nH]ncc3c(-c3ccc(C#CCN)o3)c2C#N)cc1 [Compound 288]
17 | 100 to 1000 | < 100 | N#Cc1c(-c2ccc(O)cc2)nc2[nH]ncc2c1-c1ccc(CCCN)o1 [Compound 289]
18 | 1000 to 10000 | 1000 to 10000 | N#Cc1c(-c2ccc(CCl)cc2)nc2[nH]nc(-c3ccc(C(F)(F)F)cc3)c2c1-c1ccc(N2CCNCC2)cc1 [Compound 290]
19 | 1000 to 10000 | 1000 to 10000 | N#Cc1c(-c2ccc(CO)cc2)nc2[nH]nc(-c3ccc(C(F)(F)F)cc3)c2c1-c1ccc(N2CCNCC2)cc1 [Compound 291]
20 | < 100 | < 100 | COC(=O)c1c(-c2ccc(O)c(C)c2)nc2[nH]nc(C)c2c1-c1ccc(N2CCNCC2)cc1 [Compound 293]
21 | 100 to 1000 | < 100 | Cc1cc(-c2nc3[nH]nc(N)c3c(-c3ccc(N4CCNCC4)cc3)c2C#N)c(F)cc1O [Compound 294]
22 | 100 to 1000 | < 100 | COC(=O)c1c(-c2ccc(O)cc2F)nc2[nH]nc(N)c2c1-c1ccc(N2CCNCC2)cc1 [Compound 295]
23 | 100 to 1000 | 100 to 1000 | CC(C)(C)C(=O)Oc1ccc(-c2nc3[nH]nc(-c4cccs4)c3c(-c3ccc(N4CCNCC4)cc3)c2C#N)c(F)c1 [Compound 296]
24 | 100 to 1000 | 100 to 1000 | N#Cc1c(-c2ccc(OC(=O)c3ccccc3)cc2F)nc2[nH]nc(-c3cccs3)c2c1-c1ccc(N2CCNCC2)cc1 [Compound 297]
25 | > 10000 | 100 to 1000 | CC(=O)Oc1ccc(-c2nc3[nH]nc(-c4cccs4)c3c(-c3ccc(N4CCNCC4)cc3)c2C#N)c(F)c1 [Compound 298]
26 | 1000 to 10000 | < 100 | CN(C)CCN1CCN(c2ccc(-c3c(C#N)c(-c4ccc(O)cc4)nc4[nH]nc(-c5ccc(Cl)cc5)c34)c(F)c2)CC1 [Compound 299]
27 | < 100 | < 100 | COC(=O)c1c(-c2ccc(OC(=O)C(C)(C)C)cc2F)nc2[nH]nc(C)c2c1-c1ccc(N2CCNCC2)cc1 [Compound 300]
28 | > 10000 | 100 to 1000 | CC(C)(C)C(=O)Oc1ccc(-c2nc3[nH]nc(N)c3c(-c3ccc(N4CCNCC4)cc3)c2C#N)c(F)c1 [Compound 301]

Source: patent US8889711B2, “Pyrazolopyridine derivatives as anticancer agent” (Pierre Fabre Medicament, priority 2009, dated 2014)
